Assay results from patent US6525001B1, “Substituted pyrimidine and pyridine herbicides” (Mid-American Commercialization Corporation, priority 1997, dated 2003).

Legend:
Format in all cases: in vivo
[1] = test system: smallflower flatsedge (Cyperus difformis); assay: Test B flood test
How it was run: (§1)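 Plants were grown to the 2-leaf stage before treatment with test chemical, then held in a greenhouse for twelve to sixteen days. Injury was visually rated against untreated controls on a 0–10 scale, where 0 is no effect and 10 is complete control.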

rice (Oryza sativa) = assay: Test B flood test
How it was run: as §1

[2] = test system: bamyardgrass (Echinochloa crus-galli); assay: Test B flood test
How it was run: as §1

[3] = test system: duck salad (Heteranthera limosa); assay: Test B flood test
How it was run: as §1

[4] = test system: bedstraw (Galium aparine); assay: Test B pre-/postemergence; parameters: key: 0 is no effect; 10 is complete control
How it was run: (§2)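 Seeds were planted and sprayed preemergence, while plants at 2 to 18 cm (1- to 4-leaf stage) were sprayed postemergence at the same time, with test chemical in a non-phytotoxic solvent mixture containing surfactant. After twelve to sixteen days in a greenhouse, injury was rated visually against untreated controls on a 0–10 scale.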

[5] = test system: momingglory (Ipomoea hederacea); assay: Test B pre-/postemergence; parameters: key: 0 is no effect; 10 is complete control
How it was run: as §2

[6] = test system: wheat (Triticum aestivum); assay: Test B pre-/postemergence; parameters: key: 0 is no effect; 10 is complete control
How it was run: as §2

[7] = test system: broadleaf signalgrass (Brachiaria decumbens); assay: Test B pre-/postemergence; parameters: key: 0 is no effect; 10 is complete control
How it was run: as §2

[8] = test system: pigweed (Amaranthus retroflexus); assay: Test B pre-/postemergence; parameters: key: 0 is no effect; 10 is complete control
How it was run: as §2

[9] = test system: velvetleaf (Abutilon theophrasti); assay: Test B pre-/postemergence; parameters: key: 0 is no effect; 10 is complete control
How it was run: as §2

corn (Zea mays) = assay: Test B pre-/postemergence; parameters: key: 0 is no effect; 10 is complete control
How it was run: as §2

[10] = test system: giant foxtail (Setaria faberii); assay: Test B pre-/postemergence; parameters: key: 0 is no effect; 10 is complete control
How it was run: as §2

[11] = test system: sugar beet (Beta vulgaris); assay: Test B pre-/postemergence; parameters: key: 0 is no effect; 10 is complete control
How it was run: as §2

[12] = test system: cocklebur (Xanthium strumarium); assay: Test B pre-/postemergence; parameters: key: 0 is no effect; 10 is complete control
How it was run: as §2

rape (Brassica napus) = assay: Test B pre-/postemergence; parameters: key: 0 is no effect; 10 is complete control
How it was run: as §2

[13] = Rate 62 g/ha, Postemergence (flood test)
[14] = Rate 125 g/ha, Postemergence section (flood test species)
[15] = Rate 250 g/ha, Postemergence (flood test species)

Cc1cnc(-n2cnc(C(F)(F)F)n2)nc1Cn1ccc(C(F)(F)F)n1 [Compound 51]
0: Wheat plant response rating ([6]; Rate 62 g/ha, Preemergence)
8: Plant response rating, Rice (rice (Oryza sativa); [15]) | Plant response rating, Ducksalad [3, 13] | Bedstraw plant response rating ([4]; Rate 62 g/ha, Preemergence) | B. signalgrass plant response rating ([7]; Rate 125 g/ha, Postemergence) | Velvetleaf plant response rating ([9]; Rate 125 g/ha, Postemergence) | Corn plant response rating (corn (Zea mays); Rate 125 g/ha, Postemergence) | Plant response rating, Corn (corn (Zea mays); Rate 125 g/ha, Preemergence) | Plant response rating, Corn (corn (Zea mays); Rate 250 g/ha, Preemergence) | Plant response rating, Giant foxtail ([10]; Rate 62 g/ha, Postemergence) | Giant foxtail plant response rating ([10]; Rate 62 g/ha, Preemergence)
3: Plant response rating, Rice (rice (Oryza sativa); [13]) | Plant response rating, Wheat ([6]; Rate 125 g/ha, Preemergence) | Cocklebur plant response rating ([12]; Rate 62 g/ha, Preemergence)
2: Plant response rating, B. signalgrass ([7]; Rate 62 g/ha, Postemergence)
4: B. signalgrass plant response rating ([7]; Rate 62 g/ha, Preemergence) | Corn plant response rating (corn (Zea mays); Rate 62 g/ha, Preemergence)
9: Plant response rating, S. Flatsedge [1, 13] | S. Flatsedge plant response rating [1, 14] | Plant response rating, S. Flatsedge [1, 15] | Ducksalad plant response rating [3, 14] | Plant response rating, Ducksalad [3, 15] | Plant response rating, Bedstraw ([4]; Rate 62 g/ha, Postemergence) | Plant response rating, Bedstraw ([4]; Rate 250 g/ha, Preemergence) | Wheat plant response rating ([6]; Rate 125 g/ha, Postemergence) | Plant response rating, Wheat ([6]; Rate 250 g/ha, Postemergence) | Plant response rating, B. signalgrass ([7]; Rate 125 g/ha, Preemergence) | Plant response rating, B. signalgrass ([7]; Rate 250 g/ha, Postemergence) | Plant response rating, B. signalgrass ([7]; Rate 250 g/ha, Preemergence) | Plant response rating, Velvetleaf ([9]; Rate 250 g/ha, Postemergence) | Plant response rating, Corn (corn (Zea mays); Rate 250 g/ha, Postemergence) | Cocklebur plant response rating ([12]; Rate 125 g/ha, Postemergence) | Plant response rating, Cocklebur ([12]; Rate 250 g/ha, Postemergence) | Plant response rating, Rape (rape (Brassica napus); Rate 62 g/ha, Postemergence) | Rape plant response rating (rape (Brassica napus); Rate 125 g/ha, Postemergence)
7: Plant response rating, Barnyardgrass [2, 15] | Plant response rating, Velvetleaf ([9]; Rate 62 g/ha, Postemergence) | Plant response rating, Corn (corn (Zea mays); Rate 62 g/ha, Postemergence)
10: Bedstraw plant response rating ([4]; Rate 125 g/ha, Postemergence) | Plant response rating, Bedstraw ([4]; Rate 125 g/ha, Preemergence) | Plant response rating, Bedstraw ([4]; Rate 250 g/ha, Postemergence) | Plant response rating, Morningglory ([5]; Rate 62 g/ha, Postemergence) | Morningglory plant response rating ([5]; Rate 62 g/ha, Preemergence) | Morningglory plant response rating ([5]; Rate 125 g/ha, Postemergence) | Plant response rating, Morningglory ([5]; Rate 125 g/ha, Preemergence) | Plant response rating, Morningglory ([5]; Rate 250 g/ha, Postemergence) | Plant response rating, Morningglory ([5]; Rate 250 g/ha, Preemergence) | Plant response rating, Redroot pigweed ([8]; Rate 62 g/ha, Postemergence) | Redroot pigweed plant response rating ([8]; Rate 62 g/ha, Preemergence) | Redroot pigweed plant response rating ([8]; Rate 125 g/ha, Postemergence) | Plant response rating, Redroot pigweed ([8]; Rate 125 g/ha, Preemergence) | Plant response rating, Redroot pigweed ([8]; Rate 250 g/ha, Postemergence) | Plant response rating, Redroot pigweed ([8]; Rate 250 g/ha, Preemergence) | Velvetleaf plant response rating ([9]; Rate 62 g/ha, Preemergence) | Plant response rating, Velvetleaf ([9]; Rate 125 g/ha, Preemergence) | Plant response rating, Velvetleaf ([9]; Rate 250 g/ha, Preemergence) | Giant foxtail plant response rating ([10]; Rate 125 g/ha, Postemergence) | Plant response rating, Giant foxtail ([10]; Rate 125 g/ha, Preemergence) | Plant response rating, Giant foxtail ([10]; Rate 250 g/ha, Postemergence) | Plant response rating, Giant foxtail ([10]; Rate 250 g/ha, Preemergence) | Plant response rating, Sugarbeets ([11]; Rate 62 g/ha, Postemergence) | Sugarbeets plant response rating ([11]; Rate 62 g/ha, Preemergence) | Sugarbeets plant response rating ([11]; Rate 125 g/ha, Postemergence) | Plant response rating, Sugarbeets ([11]; Rate 125 g/ha, Preemergence) | Plant response rating, Sugarbeets ([11]; Rate 250 g/ha, Postemergence) | Plant response rating, Sugarbeets ([11]; Rate 250 g/ha, Preemergence) | Plant response rating, Cocklebur ([12]; Rate 125 g/ha, Preemergence) | Plant response rating, Cocklebur ([12]; Rate 250 g/ha, Preemergence) | Rape plant response rating (rape (Brassica napus); Rate 62 g/ha, Preemergence) | Plant response rating, Rape (rape (Brassica napus); Rate 125 g/ha, Preemergence) | Plant response rating, Rape (rape (Brassica napus); Rate 250 g/ha, Postemergence) | Plant response rating, Rape (rape (Brassica napus); Rate 250 g/ha, Preemergence)
6: Barnyardgrass plant response rating [2, 14] | Wheat plant response rating ([6]; Rate 62 g/ha, Postemergence) | Plant response rating, Cocklebur ([12]; Rate 62 g/ha, Postemergence)
5: Rice plant response rating (rice (Oryza sativa); [14]) | Plant response rating, Barnyardgrass [2, 13] | Plant response rating, Wheat ([6]; Rate 250 g/ha, Preemergence)
